By IC50 is commonly meant the concentration that inhibits the measured activity by half. A low value points to greater potency in that assay.

Type in all cases: functional, cell-based
For one assay, the system named is MCF7. In words: Cytotoxicity against human MCF7 cells by MTT assay. (Tetrazolium dyes change colour on reduction, which living cells bring about.)
In another assay the test system is SF-268. The assay is described as follows: Cytotoxicity against human SF-268 cells by MTT assay.
Another assay relates to NCI-H460. In words: Cytotoxicity against human NCI-H460 cells by MTT assay.

As to `O=C1C(C2(C3(C4=Nc5ccccc5C4=O)Nc4ccccc4C3=O)Nc3ccccc3C2=O)=Nc2ccccc21` (stereo not drawn) [CEPHALINONE D], the IC50 was 7.57 µM in the assay with MCF7, 12.2 µM in the assay on SF-268 and 7.8 µM in the assay with NCI-H460.
